Measurements: PubChem BioAssay AID1259407 (Chemical Carcinogenesis Research Information System (CCRIS), 2018)
The source made the active and inactive calls. The rule behind the calls is not given here.

Test system: CCRIS mutagenicity, Ames/micronucleus/aberration tests
Assay: CCRIS mutagenicity studies
[1] = Test System: AMES SALMONELLA TYPHIMURIUM, Strain/Indicator: TA98, Metabolic Activation: HAMSTER, LIVER, S-9, AROCLOR 1254 (30%), Method: PREINCUBATION
[2] = Test System: AMES SALMONELLA TYPHIMURIUM, Strain/Indicator: TA98, Metabolic Activation: NONE, Method: PREINCUBATION
[3] = Test System: AMES SALMONELLA TYPHIMURIUM, Strain/Indicator: TA98, Metabolic Activation: RAT, LIVER, S-9, AROCLOR 1254 (30%), Method: PREINCUBATION
[4] = Test System: AMES SALMONELLA TYPHIMURIUM, Strain/Indicator: TA100, Metabolic Activation: HAMSTER, LIVER, S-9, AROCLOR 1254 (30%), Method: PREINCUBATION
[5] = Test System: AMES SALMONELLA TYPHIMURIUM, Strain/Indicator: TA100, Metabolic Activation: NONE, Method: PREINCUBATION
[6] = Test System: AMES SALMONELLA TYPHIMURIUM, Strain/Indicator: TA100, Metabolic Activation: RAT, LIVER, S-9, AROCLOR 1254 (30%), Method: PREINCUBATION
[7] = Test System: MOUSE LYMPHOMA, Strain/Indicator: L5178Y (TK+/TK-), Metabolic Activation: NONE, Method: SUSPENSION/PLATE
[8] = Test System: AMES SALMONELLA TYPHIMURIUM, Strain/Indicator: TA1535, Metabolic Activation: HAMSTER, LIVER, S-9, AROCLOR 1254, Method: PREINCUBATION
[9] = Test System: AMES SALMONELLA TYPHIMURIUM, Strain/Indicator: TA1535, Metabolic Activation: NONE, Method: PREINCUBATION
[10] = Test System: AMES SALMONELLA TYPHIMURIUM, Strain/Indicator: TA1535, Metabolic Activation: RAT, LIVER, S-9, AROCLOR 1254, Method: PREINCUBATION

With `CCN(CC)CCNc1ccc(CO)c2sc3ccccc3c(=O)c12` the mutagenic call [1] was “active; positive”, the mutagenic call [2] was “active; positive” and the mutagenic call (Test System: AMES SALMONELLA TYPHIMURIUM, Strain/Indicator: TA98, Metabolic Activation: NONE, Method: STANDARD PLATE) was “active; positive”. For the same molecule, the mutagenic call [3] was “active; positive”, the mutagenic call (Test System: AMES SALMONELLA TYPHIMURIUM, Strain/Indicator: TA98, Metabolic Activation: RAT, LIVER, S-9, AROCLOR 1254 OR PHENOBARBITOL, Method: STANDARD PLATE) was “active; positive” and the mutagenic call (Test System: AMES SALMONELLA TYPHIMURIUM, Strain/Indicator: TA98, Metabolic Activation: RAT, LIVER, S-9, KC500 OR PHENOBARBITAL, Method: LIQUID SUSPENSION) was “active; positive”. For the same molecule, the mutagenic call [4] was “active; positive”, the mutagenic call [5] was “active; positive” and the mutagenic call (Test System: AMES SALMONELLA TYPHIMURIUM, Strain/Indicator: TA100, Metabolic Activation: NONE, Method: STANDARD PLATE) was “active; positive”. The mutagenic call [6] was “active; positive”, the mutagenic call (Test System: AMES SALMONELLA TYPHIMURIUM, Strain/Indicator: TA100, Metabolic Activation: RAT, LIVER, S-9, AROCLOR 1254 OR PHENOBARBITOL, Method: STANDARD PLATE) was “active; positive” and the mutagenic call (Test System: AMES SALMONELLA TYPHIMURIUM, Strain/Indicator: TA100, Metabolic Activation: RAT, LIVER, S-9, KC500 OR PHENOBARBITAL, Method: LIQUID SUSPENSION) was “active; positive”. For the same molecule, the mutagenic call (Test System: AMES SALMONELLA TYPHIMURIUM, Strain/Indicator: TA1535, Metabolic Activation: NONE, Method: STANDARD PLATE) was “inactive; negative”, the mutagenic call (Test System: AMES SALMONELLA TYPHIMURIUM, Strain/Indicator: TA1535, Metabolic Activation: RAT, LIVER, S-9, AROCLOR 1254 OR PHENOBARBITOL, Method: STANDARD PLATE) was “inactive; negative” and the mutagenic call (Test System: AMES SALMONELLA TYPHIMURIUM, Strain/Indicator: TA1537, Metabolic Activation: NONE, Method: STANDARD PLATE) was “active; positive”. For the same molecule, the mutagenic call (Test System: AMES SALMONELLA TYPHIMURIUM, Strain/Indicator: TA1537, Metabolic Activation: RAT, LIVER, S-9, AROCLOR 1254 OR PHENOBARBITOL, Method: STANDARD PLATE) was “active; positive”, the mutagenic call (Test System: AMES SALMONELLA TYPHIMURIUM, Strain/Indicator: TA1537, Metabolic Activation: RAT, LIVER, S-9, KC500 OR PHENOBARBITAL, Method: LIQUID SUSPENSION) was “active; positive” and the mutagenic call (Test System: AMES SALMONELLA TYPHIMURIUM, Strain/Indicator: TA1538, Metabolic Activation: NONE, Method: STANDARD PLATE) was “active; positive”. For the same molecule, the mutagenic call (Test System: AMES SALMONELLA TYPHIMURIUM, Strain/Indicator: TA1538, Metabolic Activation: RAT, LIVER, S-9, AROCLOR 1254 OR PHENOBARBITOL, Method: STANDARD PLATE) was “active; positive”, the mutagenic call (Test System: AMES SALMONELLA TYPHIMURIUM, Strain/Indicator: TA1538, Metabolic Activation: RAT, LIVER, S-9, KC500 OR PHENOBARBITAL, Method: LIQUID SUSPENSION) was “active; positive” and the mutagenic call (Test System: CHINESE HAMSTER OVARY, Strain/Indicator: CHO-K1-BH4 (HGPRT), Metabolic Activation: NONE, Method: SUSPENSION/PLATE) was “active; positive”. For the same molecule, the mutagenic call [7] was “active; positive” and the mutagenic call (Test System: MOUSE LYMPHOMA, Strain/Indicator: L5178Y (TK+/TK-), Metabolic Activation: RAT, LIVER, S-9, AROCLOR 1254, Method: SUSPENSION/PLATE) was “active; positive”.
`CCc1ccccc1` was tested, and the mutagenic call (Test System: AMES SALMONELLA TYPHIMURIUM, Strain/Indicator: TA97, Metabolic Activation: HAMSTER, LIVER, S-9, AROCLOR 1254, Method: PREINCUBATION) was “inactive; negative”, the mutagenic call (Test System: AMES SALMONELLA TYPHIMURIUM, Strain/Indicator: TA97, Metabolic Activation: NONE, Method: PREINCUBATION) was “inactive; negative” and the mutagenic call (Test System: AMES SALMONELLA TYPHIMURIUM, Strain/Indicator: TA97, Metabolic Activation: RAT, LIVER, S-9, AROCLOR 1254, Method: PREINCUBATION) was “inactive; negative”. The mutagenic call (Test System: AMES SALMONELLA TYPHIMURIUM, Strain/Indicator: TA98, Metabolic Activation: HAMSTER LIVER S-9, AROCLOR 1254 (10 OR 30%), Method: PREINCUBATION) was “inactive; negative”, the mutagenic call (Test System: AMES SALMONELLA TYPHIMURIUM, Strain/Indicator: TA98, Metabolic Activation: HAMSTER, LIVER, S-9, AROCLOR 1254, Method: PREINCUBATION) was “inactive; negative” and the mutagenic call [2] was “inactive; negative”. For the same molecule, the mutagenic call (Test System: AMES SALMONELLA TYPHIMURIUM, Strain/Indicator: TA98, Metabolic Activation: RAT LIVER S-9, AROCLOR 1254 (10 OR 30%), Method: PREINCUBATION) was “inactive; negative”, the mutagenic call (Test System: AMES SALMONELLA TYPHIMURIUM, Strain/Indicator: TA98, Metabolic Activation: RAT, LIVER, S-9, AROCLOR 1254, Method: PREINCUBATION) was “inactive; negative” and the mutagenic call (Test System: AMES SALMONELLA TYPHIMURIUM, Strain/Indicator: TA100, Metabolic Activation: HAMSTER LIVER S-9, AROCLOR 1254 (10 OR 30%), Method: PREINCUBATION) was “inactive; negative”. For the same molecule, the mutagenic call (Test System: AMES SALMONELLA TYPHIMURIUM, Strain/Indicator: TA100, Metabolic Activation: HAMSTER, LIVER, S-9, AROCLOR 1254, Method: PREINCUBATION) was “inactive; negative”, the mutagenic call [5] was “inactive; negative” and the mutagenic call (Test System: AMES SALMONELLA TYPHIMURIUM, Strain/Indicator: TA100, Metabolic Activation: RAT LIVER S-9, AROCLOR 1254 (10 OR 30%), Method: PREINCUBATION) was “inactive; negative”. The mutagenic call (Test System: AMES SALMONELLA TYPHIMURIUM, Strain/Indicator: TA100, Metabolic Activation: RAT, LIVER, S-9, AROCLOR 1254, Method: PREINCUBATION) was “inactive; negative”, the mutagenic call (Test System: AMES SALMONELLA TYPHIMURIUM, Strain/Indicator: TA1535, Metabolic Activation: HAMSTER LIVER S-9, AROCLOR 1254 (10 OR 30%), Method: PREINCUBATION) was “inactive; negative” and the mutagenic call [8] was “inactive; negative”. The mutagenic call [9] was “inactive; negative”, the mutagenic call (Test System: AMES SALMONELLA TYPHIMURIUM, Strain/Indicator: TA1535, Metabolic Activation: RAT LIVER S-9, AROCLOR 1254 (10 OR 30%), Method: PREINCUBATION) was “inactive; negative” and the mutagenic call [10] was “inactive; negative”. The mutagenic call (Test System: AMES SALMONELLA TYPHIMURIUM, Strain/Indicator: TA1537, Metabolic Activation: HAMSTER LIVER S-9, AROCLOR 1254 (10 OR 30%), Method: PREINCUBATION) was “inactive; negative”, the mutagenic call (Test System: AMES SALMONELLA TYPHIMURIUM, Strain/Indicator: TA1537, Metabolic Activation: NONE, Method: PREINCUBATION) was “inactive; negative” and the mutagenic call (Test System: AMES SALMONELLA TYPHIMURIUM, Strain/Indicator: TA1537, Metabolic Activation: RAT LIVER S-9, AROCLOR 1254 (10 OR 30%), Method: PREINCUBATION) was “inactive; negative”. For the same molecule, the mutagenic call [7] was “active; positive”.
`CC[N+]([O-])=NC` was tested, and the mutagenic call [8] was “inactive; negative”, the mutagenic call [9] was “inactive; negative” and the mutagenic call [10] was “inactive; negative”.
In the case of `CCC(Cl)[N+](=O)[O-]` (centres undefined), the mutagenic call [1] is reported as “active; positive”, the mutagenic call [2] is reported as “active; positive” and the mutagenic call [3] is reported as “active; positive”. For the same molecule, the mutagenic call [4] was “active; positive”, the mutagenic call [5] was “active; positive” and the mutagenic call [6] was “active; positive”.
